24 compounds from US20260176290A1, “INHIBITORS OF KRAS(G12D)” (Ranok Therapeutics (Hangzhou) Co. Ltd., priority 2022, published 2026) can be followed below.

Some results are limits rather than exact numbers.

Assay [1] deals with AGS gastric carcinoma cells [heterozygous G12D]. As to the kind of experiment: Cancer cell line proliferation (CellTiter-Glo), AGS. The note with it: Homo sapiens, 72 hr, read-out: CTG(IC50), ABS-72 H(nM) AGS. The format is cell-based. On the procedure:
(§1) The following cancer cell lines were employed: AGS gastric carcinoma [heterozygous G12D] (ATCC, CRL-1739); A-427 lung carcinoma [heterozygous G12D] (ATCC, HTB-53); ASPC1 pancreatic adenocarcinoma [homozygous G12D] (ATCC, CRL-1682) and SW1990 pancreatic adenocarcinoma [homozygous G12D] (ATCC CRL-2172). Cell lines were cultured essentially according to ATCC recommendations.
(§2) AGS, A-427, ASPC1, SW1990, and GP2D cells were plated in 96-well tissue culture plates at 4,000 cells/well and incubated at 37° C./5% CO2 for 72 hr in 100 μl of media. 3-fold serial dilutions of each test compound were prepared ranging from 20 μM to 1.02 nM. Each cell line was then treated with test compounds at various concentrations with a final concentration of 0.5% DMSO/well, and then incubated at 37° C./5% CO2 for 72 hr. 100 μl of CellTiter-Glo® Reagent (Promega Corporation, Madison, WI) was added to each well and processed according manufacturer's protocol. Results were analyzed and IC50 5 values were calculated in GraphPad 7 software.

Assay [2] has as its system ASPC1 pancreatic adenocarcinoma cells [homozygous G12D]. Nature of the assay: Cancer cell line proliferation (CellTiter-Glo), ASPC1. The format is cell-based. The note with it: Homo sapiens, ASPC-1 cells, 72 hr, read-out: CTG(IC50), ABS-72 H(nM) ASPC-1. On the procedure:
as §1, §2
For orientation: In ATP-based viability assays light output follows the ATP content of the culture.

Assay [3] relates to A-427 lung carcinoma cells [heterozygous G12D]. As to the kind of experiment: Cancer cell line proliferation (CellTiter-Glo), A-427. The format is cell-based. The note with it: Homo sapiens, A427 cells, 72 hr, read-out: CTG(IC50), ABS-72 H(nM) A427. On the procedure:
as §1, §2

For assay [4], the system named is SW1990 pancreatic adenocarcinoma cells [homozygous G12D]. Nature of the assay: Cancer cell line proliferation (CellTiter-Glo), SW1990. The format is cell-based. The note with it: Homo sapiens, 72 hr, read-out: CTG(IC50), ABS-72 H(nM) SW1990. How it is done:
as §1, §2

In the next assay the target is T1, KRAS (G12D)/SOS1 (Homo sapiens, UniProt P01116, G12D).
T1 construct: purchased Cisbio 63ADK000CB17PEH
T1 sequence (P01116 1-188 isoform P01116-2 G12D): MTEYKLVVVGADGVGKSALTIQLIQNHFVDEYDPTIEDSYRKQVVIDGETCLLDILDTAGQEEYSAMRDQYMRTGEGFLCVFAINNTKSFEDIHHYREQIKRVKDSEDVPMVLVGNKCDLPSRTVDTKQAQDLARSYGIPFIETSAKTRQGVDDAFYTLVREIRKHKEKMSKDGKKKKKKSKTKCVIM
Nature of the assay: KRAS (G12D)/SOS1 homogeneous time-resolved fluorescence (HTRF) assay. The note with it: absence of GTP, 4° C. for 3 hr. The format is binding. On the procedure: 3-fold serial dilutions of each test compound were prepared ranging from 20 μM to 1.02 nM. The test compound was mixed and incubated with reaction components, incubated in a sealed plate at 4° C. for 3 hr and fluorescence was measured using a PerkinElmer Envision plate reader. […]
A general note: TR-FRET usually uses a lanthanide donor and a delayed reading to cut background.

The IC50 is the concentration at which inhibition is half-maximal. Take `C#Cc1c(F)ccc2cc(O)cc(-c3nc(OC)c4c(N5CC6CCC(C5)N6)nc(OCC5(CN6CC7CC7C6)CC5)nc4c3F)c12` (centres unmarked) [Example 2]: the concentration for half-maximal inhibition (IC50) (in assay [1]; in assay [2]; in assay [3]; in assay [4]; against KRAS (G12D)/SOS1) was less than 100 nM each time.

As for `C#Cc1c(F)ccc2cc(O)cc(-c3nc(OC)c4c(N5CC6CCC(C5)N6)nc(OCC5(CN6CCC(C(F)(F)F)CC6)CC5)nc4c3F)c12` [Example 3], the concentration for half-maximal inhibition (IC50) (in assay [1]; in assay [2]; in assay [3]; in assay [4]; at KRAS (G12D)/SOS1) was less than 100 nM each time.

Consider `C#Cc1cccc2cc(O)cc(-c3ncc4c(N5CC6CCC(C5)N6)nc(OCC5(CN6CCC(F)(F)CC6)CC5)nc4c3F)c12` [Example 5], for which the IC50 (in assay [1]; in assay [2]; in assay [3]; against KRAS (G12D)/SOS1) was less than 100 nM throughout.

On to `C#Cc1cccc2cc(O)cc(-c3ncc4c(N5CC6CCC(C5)N6)nc(OCC5(CN6CC(F)C6)CC5)nc4c3F)c12` [Example 6], for which the IC50 in assay [1] was less than 100 nM; in assay [2] it was 100 to 1000 nM; in assay [3], less than 100 nM; against KRAS (G12D)/SOS1, less than 100 nM.

Regarding `C#Cc1cccc2cc(O)cc(-c3ncc4c(N5CC6CCC(C5)N6)nc(OCC5(CN6CCC(F)CC6)CC5)nc4c3F)c12` [Example 7], the concentration for half-maximal inhibition (IC50) (in assay [1]; in assay [2]; in assay [3]; in assay [4]; against KRAS (G12D)/SOS1) was less than 100 nM throughout.

As for `C#Cc1cccc2cc(O)cc(-c3ncc4c(N5CC6CCC(C5)N6)nc(OCC5(CN6CC[C@H](F)C6)CC5)nc4c3F)c12` [Example 8], the IC50 (in assay [1]; in assay [2]; in assay [3]; in assay [4]; on KRAS (G12D)/SOS1) was less than 100 nM in each case.

Turning to `C#Cc1c(F)ccc2cc(O)cc(-c3ncc4c(N5CC6CCC(C5)N6)nc(OCC5(CN6CCCC(F)(F)C6)CC5)nc4c3F)c12` [Example 9], the IC50 in assay [1] was less than 100 nM; in assay [2], 100 to 1000 nM; in assay [3], 100 to 1000 nM; against KRAS (G12D)/SOS1, less than 100 nM.

As for `C#Cc1c(F)ccc2cc(O)cc(-c3ncc4c(N5CC6CCC(C5)N6)nc(OCC5(CN6CCC[C@H](C#N)C6)CC5)nc4c3F)c12` [Example 10], the IC50 (in assay [1]; in assay [2]; in assay [3]; at KRAS (G12D)/SOS1) was less than 100 nM each time.

Consider `C#Cc1c(F)ccc2cc(O)cc(-c3ncc4c(N5CC6CCC(C5)N6)nc(OCC5(CN6CCC(C#N)CC6)CC5)nc4c3F)c12` [Example 11], for which the half-maximal inhibitory concentration (IC50) (in assay [1]; in assay [2]; in assay [3]; at KRAS (G12D)/SOS1) was less than 100 nM each time.

`C#Cc1c(F)ccc2cc(O)cc(-c3ncc4c(N5CC6CCC(C5)N6)nc(OCC5(CN6CCC(OC)CC6)CC5)nc4c3F)c12` [Example 12]: the IC50 in assay [1] is less than 100 nM; in assay [2], 100 to 1000 nM; in assay [3], 100 to 1000 nM; against KRAS (G12D)/SOS1 it was less than 100 nM.

With `C#Cc1c(F)ccc2cc(O)cc(-c3ncc4c(N5CC6CCC(C5)N6)nc(OCC5(CN6CC[C@H](F)C6)CC5)nc4c3F)c12` [Example 15], the IC50 (in assay [1]; in assay [2]; in assay [3]; on KRAS (G12D)/SOS1) was less than 100 nM in each case.

For `C#Cc1c(F)ccc2cc(O)cc(-c3ncc4c(N5CC6CCC(C5)N6)nc(OCC5(CN6CCC[C@@H](F)C6)CC5)nc4c3F)c12` [Example 16], the IC50 (in assay [1]; in assay [2]; in assay [3]; against KRAS (G12D)/SOS1) was less than 100 nM throughout.

Take `C#Cc1cccc2cc(O)cc(-c3ncc4c(N5CC6CCC(C5)N6)nc(OCC5(CN6CCC(OC)CC6)CC5)nc4c3F)c12` [Example 17]: the 50% inhibitory concentration (IC50) in assay [1] is less than 100 nM; in assay [3], 100 to 1000 nM; against KRAS (G12D)/SOS1, less than 100 nM.

On to `C#Cc1c(F)ccc2cc(O)cc(-c3ncc4c(N5CC6CCC(C5)N6)nc(OCC5(CN6CCC(C(C)C)CC6)CC5)nc4c3F)c12` [Example 18], for which the 50% inhibitory concentration (IC50) was less than 100 nM in assay [1], 100 to 1000 nM in assay [3] and less than 100 nM on KRAS (G12D)/SOS1.

For the compound `C#Cc1c(F)ccc2cc(O)cc(-c3ncc4c(N5CC6CCC(C5)N6)nc(OCC5(CN6CCC(OC(F)(F)F)CC6)CC5)nc4c3F)c12` [Example 20], the half-inhibitory concentration (IC50) in assay [1] is less than 100 nM; in assay [2], less than 100 nM; in assay [3] it was 100 to 1000 nM; in assay [4] it was less than 100 nM; against KRAS (G12D)/SOS1, less than 100 nM.

Consider `C#Cc1c(F)ccc2cc(O)cc(-c3ncc4c(N5CC6CCC(C5)N6)nc(OCC5(CN6CC7CC7(C#N)C6)CC5)nc4c3F)c12` (centres unmarked) [Example 21], for which the IC50 in assay [1] was less than 100 nM; in assay [2] it was 100 to 1000 nM; in assay [3] it was 100 to 1000 nM; in assay [4] it was less than 100 nM; at KRAS (G12D)/SOS1, less than 100 nM.

For the compound `C#Cc1c(F)ccc2cc(O)cc(-c3ncc4c(N5CC6CCC(C5)N6)nc(OCC5(CN6CCC([S+](C)[O-])CC6)CC5)nc4c3F)c12` (centres unmarked) [Example 22], the half-inhibitory concentration (IC50) in assay [1] was greater than 1000 nM; in assay [2], greater than 1000 nM; in assay [3], greater than 1000 nM; against KRAS (G12D)/SOS1, 100 to 1000 nM.

In the case of `C#Cc1c(F)ccc2cc(O)cc(-c3nc(N(C)C)c4c(N5CC6CCC(C5)N6)nc(OCC5(CN6CCC(F)CC6)CC5)nc4c3F)c12` [Example 23], the IC50 in assay [1] was greater than 1000 nM; in assay [2], greater than 1000 nM; in assay [3], greater than 1000 nM; in assay [4], greater than 1000 nM; at KRAS (G12D)/SOS1, 100 to 1000 nM.

In the case of `C#Cc1c(F)ccc2cc(O)cc(-c3nc(OC(F)F)c4c(N5CC6CCC(C5)N6)nc(OCC5(CN6CCC(F)CC6)CC5)nc4c3F)c12` [Example 35], the 50% inhibitory concentration (IC50) (in assay [1]; in assay [2]; in assay [4]; on KRAS (G12D)/SOS1) was less than 100 nM throughout.

For `C#Cc1c(F)ccc2cc(O)cc(-c3nc(N)c4c(N5CC6CCC(C5)N6)nc(OCC5(CN6CCC(F)CC6)CC5)nc4c3F)c12` [Example 46], the 50% inhibitory concentration (IC50) in assay [1] was less than 100 nM; in assay [2], 100 to 1000 nM; in assay [4], less than 100 nM; on KRAS (G12D)/SOS1, less than 100 nM.

Turning to `C#Cc1c(F)ccc2cc(O)cc(-c3nc(OC(F)(F)F)c4c(N5CC6CCC(C5)N6)nc(OCC5(CN6CCC(F)CC6)CC5)nc4c3F)c12` [Example 47], the half-inhibitory concentration (IC50) (in assay [1]; in assay [2]; in assay [4]; against KRAS (G12D)/SOS1) was less than 100 nM each time.

As to `C#Cc1c(F)ccc2cc(O)cc(-c3nc(OC)c4c(N5CC6CCC(C5)N6)nc(OCC(=C)CN5CC6CC6C5)nc4c3F)c12` (centres unmarked) [Example 48], the IC50 (in assay [1]; in assay [2]; in assay [4]; against KRAS (G12D)/SOS1) was less than 100 nM throughout.

In the case of `C#Cc1c(F)ccc2cc(O)cc(-c3nc(OC)c4c(N5CC6CCC(C5)N6)nc(OCC5(CN6CC7(CC(F)C7)C6)CC5)nc4c3F)c12` [Example 50], the IC50 (in assay [1]; in assay [2]; in assay [4]; at KRAS (G12D)/SOS1) was less than 100 nM each time.

Consider `C#Cc1c(F)ccc2cc(O)cc(-c3ncc4c(N5CC6CCC(C5)N6)nc(OCC56CCCN5C[C@H](F)C6)nc4c3F)c12` (some centres unmarked) [Ref. 1, reference compound], for which the IC50 in assay [1] was less than 100 nM; in assay [2] it was 100 to 1000 nM; in assay [3], less than 100 nM; in assay [4] it was less than 100 nM.
